{"source": "patent EP0302934A1", "about": "“ALICYCLIC DICARBOXYLIC ACID DERIVATIVES AND MUSCLE RELAXANTS CONTAINING THEM AS EFFECTIVE INGREDIENTS” (NIPPON ZEON CO., LTD., priority 1987, dated 1988)", "key": {"ICR male mice": {"tested_on": "ICR male mice", "assay": "Horizontal wire test", "format": "in vivo", "details": "maximum number of fallen mice out of 6 per group; 100 mg/kg-body weight orally, suspended in 0.4% aqueous carboxymethyl cellulose", "description": "Thereafter, at constant intervals of time, the mice were suspended by their forepaws on the metallic wire held horizontally, and the number of animals failing to hang was counted."}, "Wister male rats": {"tested_on": "Wister male rats", "assay": "Test method using anaemic decerebrate rigidity animals", "format": "in vivo", "details": "3 mg/kg body weight intravenously in polyethylene glycol; three rats per group; visually followed over 60 minutes", "procedure": "Each of Compound 1 and Compound 3 obtained in the synthesis examples was dissolved into 100% polyethylene glycol (molecular weight ca. 400) to prepare test drugs having a concentration of 0.3%. According to the method of Fukuda et al. (Fukuda, H., Ito, T., Hashimoto, S. and Kudo, Y., Japan. J. Pharmacol., (1974) 24; 810), the rigidity was induced in Wister male rats (body weight 250 to 350 g). Thus, by ligating both the common carotid arteries and coagulating the basilarartery by means of high frequency wave, the rigidity was induced in the fore legs of the animals. Using three animals as one group, each test drug was intravenously administered to the animals so that the amount of active ingredient came to 3 mg/kg body weight. Thereafter, whether the rigidity in the fore legs of the rat was relaxed or not was visually followed over a continuous 60 minutes."}, "in vivo": {"assay": "in vivo", "parameters": "species or system mice", "details": "mouse, po", "procedure": "ICR male mice (body weight 20 to 30 g, 10 animals per one group) were used for the test.\nA test drug was prepared by suspending Compound 3 into 0.4% aqueous solution of carboxymethyl cellulose, and it was orally administered.\nThereafter, the state of the animals was visually observed for 5 days. As the result, LD50 (mg/kg) was 1,000 mg/kg or more."}}, "note": "Entries after “also recorded” stand apart in the source; their conditions may differ.", "data": [{"compound": "CC1C=CCC2C(=O)N(c3cc(Cl)cc(Cl)c3)C(=O)C12", "note": "(centres unmarked) [Compound 1, N-(3^1,5^1-Dichlorophenyl)-3-methyl-4-cyclohexene-l,2-dicarboxylic Acid Imide]", "values": [{"measurement": "No. of fallen cases", "setting": "ICR male mice", "value": 5}, {"measurement": "rigidity in the fore legs relaxed or not", "setting": "Wister male rats", "value": "the rigidity disappeared"}]}, {"compound": "CC1CCC(C)C2C(=O)N(c3cc(Cl)cc(Cl)c3)C(=O)C12", "note": "(centres unmarked) [Compound 4, N-(3' ,5'-Dichlorophenyl)-3,6-dimethyicyclo-hexane-l,2-dicarboxylic acid imide]", "values": [{"measurement": "No. of fallen cases", "setting": "ICR male mice", "value": 3}]}, {"compound": "2-(3',5'-Dichlorophenylcarbamoyl)-3(6)-methyl-4-cyclohexenecarboxylic Acid [Compound 5]", "values": [{"measurement": "No. of fallen cases", "setting": "ICR male mice", "value": 3}]}, {"compound": "CC1C=CC(C)C(C(=O)Nc2cc(Cl)cc(Cl)c2)C1C(=O)[O-].[Na+]", "note": "(centres unmarked) [Compound 7, Sodium 2-(3',5'-Dichlorophenyl-carbamoyl)-3,6-dimethyl-4-cyclohexenecarboxylate]", "values": [{"measurement": "No. of fallen cases", "setting": "ICR male mice", "value": 3}]}, {"compound": "CC1C=CC(C)C2C(=O)N(c3cc(Cl)cc(Cl)c3)C(=O)C12", "note": "(centres unmarked) [Compound 3, N-(3',5'-Dichlorophenyl)-3,6-dimethyl-4-cyclohexene-1,2-dicarboxylic acid imide]", "values": [{"measurement": "No. of fallen cases", "setting": "ICR male mice", "value": 3}, {"measurement": "rigidity in the fore legs relaxed or not", "setting": "Wister male rats", "value": "the rigidity disappeared; also recorded: particularly marked rigidity - eliminating effect"}, {"measurement": "LD50 at 120 h", "setting": "in vivo", "value": "≥ 1000", "unit": "mg/kg"}]}]}
